We go through three molecules from patent EP0006128A1, “2,3-Dihydro-2-methyl-3-(2-(dimethylamino)-propyl)-3-phenyl-1H-indol-1-carboxaldehyde, process for its preparation and pharmaceutical preparations containing it” (Dr. Karl Thomae GmbH, priority 1978, dated 1980).

One data set concerns wachen weißen Ratten. The data set can be described thus: Cough test in conscious rats, cough provoked by inhaled citric acid spray. In kind it is in vivo. The settings on record: Rattus norvegicus, po, 0.5 h; male rats, per os as Tylose suspension, 7,5 % citric acid spray over 2 min, cough count 30 min after application, dose halving the number of coughs. The source says:
Die Hustenversuche wurden an wachen weißen Ratten (Geschlecht: männlich) durchgeführt. Die Hustenprovokation erfolgte durch Inhalation eines 7,5 %igen Zitronensäuresprays über 2 Minuten. 10 Tiere pro Dosis erhielten die Substanz als Tyloseaufschwemmung peroral appliziert. Die Bewertung erfolgte aus der durchschnittlichen prozentualen Abnahme der Zahl der Hustenstöße 30 Minuten nach Applikation gegenüber den Leerwerten. (Weitere methodische Angaben: ENGELHORN und PÜSCHMANN, Arzneim.-Forsch. 13, 474-480,(1963)). Die ED50 ist die Dosis, nach deren Verabreichung die Zahl der Hustenstöße durchschnittlich um die Hälfte vermindert wird, die Berechnung erfolgte nach der Methode von Litchfield und Wilcoxon. Es wurde für das Racemat eine ED50 von 3,9 mg/kg per os gefunden.

The test system of a further data set is Katze. The data set can be described thus: Antitussive effect in the cat, method of Domenjoz. In kind it is in vivo. The following applies: dose range 0,5 bis 2 mg/kg i.v.
Data set [1] deals with durch Acetylcholin hervorgerufenen Bronchialspasmen. The data set can be described thus: Broncholytic effect in guinea pigs, method of Konzett and Rössler (acetylcholine-induced bronchospasm). It counts as in vivo, Meerschweinchen. The following applies: Cavia porcellus, iv, i.v. injection, dose giving 50 % reduction, read-out: Herabsetzung der durch Acetylcholin hervorgerufenen Bronchialspasmen um 50 %. As for the experimental part:
Die broncholytische Wirkung wurde an Meerschweinchen nach der Methode von KONZETT und RÖSSLER (Arch. exp. Path. Pharmakol. 195, 71, (1940)) geprüft. Die Herabsetzung der durch Acetyl- cholin hervorgerufenen Bronchialspasmen um 50 % wurde durch i.v.-Injektion von 1,5 mg/kg des Racemats erreicht, beim (-)-Enantiomeren reichten bereits 1 mg/kg aus, um etwa den gleichen Effekt zu erreichen.

The nature of the next data set: Acute toxicity in mice. The following applies: mouse, in vivo, mice of both sexes, 20 g, 14 days observation. On the procedure: Für die Bestimmung der akuten Toxizität wurden Mäuse beider Geschlechter mit einem Körpergewicht von 20 g verwendet. 10 Tiere pro Dosis erhielten die Substanz einmalig appliziert. Die Berechnung der DL50, der Dosis, nach deren Verabreichung 50 % der Tiere innerhalb der Beobachtungszeit verstarben, erfolgte i nach der Methode von LITCHFIELD und WILCOXON nach einer Beobachtungszeit von 14 Tagen: • Racemat CL50 p.o.: 545 mg/kg DL50 i.v.: 66 mg/kg, […]

Where [2] appears, read: po, single dose p.o., read-out: DL50 p.o.

Read-outs that look alike come from different tables or passages of the source.

With `CC(CC1(c2ccccc2)c2ccccc2N(C=O)C1C)N(C)C` (racemic) [Racemat, Rac. 2,3-Dihydro-2-methyl-3-[2-(dimethylamino)-propyl]-3-phenyl-1H-indol-1-carboxaldehyd], the ED50 in the data set with wachen weißen Ratten was 3.9 mg/kg; in data set [1], 1.5 mg/kg. Further, in the data set on Katze, the “antitussive Wirkung” value is “deutliche hustenstillende Wirkung”. For the same molecule, the LD50 at 336 h is 66 mg/kg in “Acute toxicity in mice” (iv, single dose i.v., read-out: DL50 i.v.) and 545 mg/kg in “Acute toxicity in mice” (setting [2]).
Consider `CC(CC1(c2ccccc2)c2ccccc2N(C=O)C1C)N(C)C` (single isomer, unassigned; (-)) [(-)-Enantiomeres, (-)-2,3-Dihydro-2-methyl-3-/2-(dimethylamino)-propyl/-3-phenyl-1H-indol-1-carboxaldehyd], for which the ED50 in data set [1] is approximately 1 mg/kg. Further, the LD50 at 336 h in the data set “Acute toxicity in mice” (setting [2]) was approximately 560 mg/kg.
Consider `CC(CC1(c2ccccc2)c2ccccc2N(C=O)C1C)N(C)C` (single isomer, unassigned; (+)) [(+)-Enantiomeres, (+)-2,3-Dihydro-2-methyl-3-[2-(dimethylamino)-propyl]-3-phenyl-1H-indol-1-carboxaldehyd], for which the “antitussive Wirkung” value in the data set on Katze is “deutliche hustenstillende Wirkung”. Further, the LD50 at 336 h in “Acute toxicity in mice” (setting [2]) was approximately 500 mg/kg.
